Experimental data published in ChEMBL document CHEMBL5154929, “Optimization of the Natural Product Calothrixin A to Discover Novel Dual Topoisomerase I and II Inhibitors with Improved Anticancer Activity” (J Med Chem, 2022).
Calls of active or inactive are those of the source. No cut-off for these calls is given here.

Assays:
MCF7 = test: Cytotoxicity against human MCF7 cells expressing high level of topoisomerase I/II measured after 72 hrs by MTT assay; format: functional, cell-based; settings: MCF7, 72 h
A-375 [1] = test: Cytotoxicity against human A-375 cells expressing high level of topoisomerase I/II measured after 72 hrs by MTT assay; format: functional, cell-based; settings: A-375, 72 h
[2] = Cytotoxicity against human HEK293T cells measured after 72 hrs by MTT assay; format: toxicity, cell-based, HEK-293T
A549 = test: Cytotoxicity against human A549 cells expressing high level of topoisomerase I/II measured after 72 hrs by MTT assay; format: functional, cell-based; settings: A549, 72 h
HCT-116 [3] = test: Cytotoxicity against human HCT-116 cells expressing high level of topoisomerase I/II measured after 72 hrs by MTT assay; format: functional, cell-based; settings: HCT-116, 72 h
SH-SY5Y = test: Cytotoxicity against human SH-SY5Y cells expressing low level of topoisomerase I/II measured after 72 hrs by MTT assay; format: functional, cell-based
[4] = Cytotoxicity against human L02 cells measured after 72 hrs by MTT assay; format: toxicity, cell-based
[5] = target: T1, DNA topoisomerase 1 (Homo sapiens) (UniProt P11387); test: Inhibition of DNA topoisomerase I (unknown origin) relaxation activity at 100 uM incubated for 30 mins by chemiDoc system
T1 sequence (whole entry): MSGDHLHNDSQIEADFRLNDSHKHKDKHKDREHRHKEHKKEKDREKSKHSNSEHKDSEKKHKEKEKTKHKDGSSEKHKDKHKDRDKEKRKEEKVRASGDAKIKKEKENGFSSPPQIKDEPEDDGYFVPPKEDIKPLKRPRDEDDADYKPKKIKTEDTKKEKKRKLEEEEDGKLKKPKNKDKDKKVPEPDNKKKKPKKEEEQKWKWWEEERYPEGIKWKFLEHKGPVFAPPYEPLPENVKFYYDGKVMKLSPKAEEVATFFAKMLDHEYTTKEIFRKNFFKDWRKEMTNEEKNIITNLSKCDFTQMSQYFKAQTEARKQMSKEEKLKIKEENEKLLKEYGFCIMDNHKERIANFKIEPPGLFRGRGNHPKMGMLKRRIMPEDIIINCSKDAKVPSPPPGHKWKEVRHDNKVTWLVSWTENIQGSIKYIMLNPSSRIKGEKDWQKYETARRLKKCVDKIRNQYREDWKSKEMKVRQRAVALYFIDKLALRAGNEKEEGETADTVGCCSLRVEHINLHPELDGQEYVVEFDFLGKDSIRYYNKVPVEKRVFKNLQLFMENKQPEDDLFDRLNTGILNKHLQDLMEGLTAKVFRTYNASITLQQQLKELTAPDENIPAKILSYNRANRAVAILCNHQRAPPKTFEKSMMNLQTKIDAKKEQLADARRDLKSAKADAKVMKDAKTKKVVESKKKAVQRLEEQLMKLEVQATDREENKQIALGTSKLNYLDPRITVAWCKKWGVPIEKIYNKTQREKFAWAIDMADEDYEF

MDA-MB-231 = test: Cytotoxicity against human MDA-MB-231 cells expressing high level of topoisomerase I/II measured after 72 hrs by MTT assay; format: functional, cell-based; settings: MDA-MB-231, 72 h
A-375 [6] = test: Induction of cell cycle arrest in human A-375 cells assessed as accumulation of cells at S phase at 80 nM incubated for 24 hrs by PI based flow cytometric analysis (RVB = 26.73%); format: functional
A-375 [7] = test: Induction of cell cycle arrest in human A-375 cells assessed as accumulation of cells at G2 phase at 80 nM incubated for 24 hrs by PI based flow cytometric analysis (RVB = 20.34%); format: functional
[8] = Aqueous solubility of the compound in saline equilibrating for 24 hrs by HPLC analysis; format: physicochemical
HCT-116 [9] = test: Antiproliferative activity against doxorubicin sensitive human HCT-116 cells measured after 72 hrs by MTT assay; format: functional, cell-based; settings: HCT-116, 72 h
HCT-116 [10] = test: Antiproliferative activity against doxorubicin resistant human HCT-116 cells measured after 72 hrs by MTT assay; format: functional, cell-based; settings: HCT-116, 72 h
A-375 [11] = test: Induction of cell cycle arrest in human A-375 cells assessed as accumulation of cells at G1 phase at 80 nM incubated for 24 hrs by PI based flow cytometric analysis (RVB = 52.94%); format: functional
[12] = Microsomal stability in mouse liver microsomes assessed as half life measured at 2 ug/ml upto 60 mins in presence of NADPH generating system and UGT incubation system by phase II metabolic stability kit method; format: ADME, Microsome; settings: dose 2 µg/ml
[13] = Tmax in Kunming mouse plasma at 10 mg/kg, iv administered as single dose measured after 5 to 360 mins by HPLC analysis; format: ADME, organism-based; settings: time 5-360 min
[14] = Selectivity index, ratio of IC50 for human L02 cells to IC50 for human A-375 cells; format: toxicity; settings: L02 cells and A-375 cells, read-out: Ratio IC50
A-375 [15] = test: (§1) In vivo induction of apoptosis in human A-375 cells xenografted in BALB/c nude mouse treated after 7 days of tumor implantation on right flank subcutaneously at 10 mg/kg, iv administered once per 2 days for 14 days by measuring TUNEL positive cells under a light microscope; format: functional, organism-based; settings: time 14.0 day
[16] = Toxicity in BALB/c nude mouse xenografted with human A-375 cells assessed as body weight loss treated after 7 days of tumor implantation on right flank subcutaneously at 10 mg/kg, iv administered once per 2 days for 14 days measured once every two days; format: organism-based; settings: in vivo, 336 h, time 14 day
A-375 [17] = test: as §1, with “mouse assessed as […]” for “mouse”; format: functional, organism-based; settings: time 14.0 day
[18] = Volume of distribution in Kunming mouse plasma at 10 mg/kg, iv administered as single dose measured after 5 to 360 mins by HPLC analysis; format: ADME, organism-based; settings: time 5-360 min
[19] = Metabolic stability in mouse plasma upto 5 hrs by HPLC-UV analysis; format: ADME, cell-free
[20] = Microsomal stability in mouse liver microsomes assessed as clearance measured at 2 ug/ml upto 60 mins in presence of NADPH generating system and UGT incubation system by phase II metabolic stability kit method; format: ADME, Microsome; settings: dose 2 µg/ml, read-out: CLH
A-375 [21] = test: In vivo antitumor activity against human A-375 cells xenografted in BALB/c nude mouse assessed as shrinkage of tumor tissue treated after 7 days of tumor implantation on right flank subcutaneously at 10 mg/kg, iv administered once per 2 days for 14 days measured once every two days; format: functional, organism-based; settings: time 14.0 day
[22] = Clearance in Kunming mouse plasma at 10 mg/kg, iv administered as single dose measured after 5 to 360 mins by HPLC analysis; format: ADME, organism-based; settings: time 5-360 min
A-375 [23] = test: In vivo antitumor activity against human A-375 cells xenografted in BALB/c nude mouse assessed as decrease in tumor weight treated after 7 days of tumor implantation on right flank subcutaneously at 10 mg/kg, iv administered once per 2 days for 14 days measured once every two days; format: functional, organism-based; settings: time 14.0 day
[24] = AUC in Kunming mouse plasma at 10 mg/kg, iv administered as single dose measured after 5 to 360 mins by HPLC analysis; format: ADME, organism-based; parameters: time upper 360 min, time lower 5 min, dose 10 mg/kg, route iv
[25] = Toxicity in BALB/c nude mouse xenografted with human A-375 cells assessed as tolerability treated after 7 days of tumor implantation on right flank subcutaneously at 10 mg/kg, iv administered once per 2 days for 14 days measured once every two days; format: organism-based; settings: in vivo, 336 h, time 14 day
A-375 [26] = test: as §1, with “mouse assessed as increase in C-caspase-3 level” for “mouse”; format: functional, organism-based; settings: time 14.0 day
[27] = Half life in Kunming mouse plasma at 10 mg/kg, iv administered as single dose measured after 5 to 360 mins by HPLC analysis; format: ADME, organism-based; settings: time 5-360 min
[28] = Cmax in Kunming mouse plasma at 10 mg/kg, iv administered as single dose measured after 5 to 360 mins by HPLC analysis; format: ADME, organism-based; parameters: dose 10 mg/kg, time upper 360 min, time lower 5 min, route iv

SMILES	IC50 (MCF7) [nM]	IC50 (A-375 [1]) [nM]	IC50 at 72 h [2] [nM]	IC50 (A549) [nM]	IC50 (HCT-116 [3]) [nM]	IC50 (SH-SY5Y) [nM]	IC50 at 72 h [4] [nM]	inhibition [5]	IC50 (MDA-MB-231) [nM]	Activity (A-375 [6]) [%]	Activity (A-375 [7]) [%]	solubility at 24 h [8] [µg/mL]	IC50 (HCT-116 [9]) [nM]	IC50 (HCT-116 [10]) [nM]	Activity (A-375 [11]) [%]	other results
O=C1c2c[n+]([O-])c3ccccc3c2C(=O)c2c1c1ccccc1n2CCCCN1CCNCC1	12000	460	760	540	700	1240	1380	Active	3310							
O=C1c2c[n+]([O-])c3ccccc3c2C(=O)c2[nH]c3ccccc3c21 [CALOTHRIXIN A]	540	660	890	320	620	1380	400	Active	480	33.26	10.46	< 5	650	810	56.28	
CN(C)CCCCn1c2c(c3ccccc31)C(=O)c1c[n+]([O-])c3ccccc3c1C2=O	220	470	520	310	450	250	300	Active	350							
COc1cc([C@@H]2c3cc4c(cc3[C@@H](O[C@@H]3O[C@@H]5CO[C@@H](C)O[C@H]5[C@H](O)[C@H]3O)[C@H]3COC(=O)[C@H]23)OCO4)cc(OC)c1O [ETOPOSIDE]	790	280	1390	600	380	890	1220		510	31.79	12.07		370	3520	56.15	half-life at 2 ug/ml [12]: 21 min; Tmax [13]: 5 min; selectivity ratio [14]: < 5; Activity (A-375 [15]): Active; Activity [16]: Toxic; Activity (A-375 [17]): Active; Vd [18]: 0.432 L/kg; Stability [19]: Stable; microsomal CLint at 2 ug/ml [20]: 66 µL/min/mg; Activity (A-375 [21]): Active; clearance [22]: 7 mL/min/kg; Activity (A-375 [23]): Active; AUC [24]: 6830 ng·h/mL; Activity [25]: Toxic; Activity (A-375 [26]): Active; half-life [27]: 45 min; Cmax [28]: 17700 ng/mL
O=C1c2c[n+]([O-])c3ccccc3c2C(=O)c2c1c1ccccc1n2Cc1cn([C@H]2C[C@H](O)[C@@H](CO)O2)nn1	530	390	3600	350	120	620	280		580			> 5000				
